This passage reports IC50 results from patent US4801610A, “Phenolic ester derivatives as elastase inhibitors” (G. D. Searle & Co., priority 1987, dated 1989).

pIC50: −log10 of the molar value.

For the experiment, the target named is T1, Human Leukocyte Elastase (HLE) (Homo sapiens, UniProt P08246).
T1 sequence (P08246 30-247 limits assumed): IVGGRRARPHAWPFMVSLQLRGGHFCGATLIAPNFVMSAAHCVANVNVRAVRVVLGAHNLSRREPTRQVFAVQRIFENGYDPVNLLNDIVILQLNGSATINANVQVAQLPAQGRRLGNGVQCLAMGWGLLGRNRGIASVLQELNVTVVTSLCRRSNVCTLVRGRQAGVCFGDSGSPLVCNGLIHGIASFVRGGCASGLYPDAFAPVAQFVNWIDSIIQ
The experiment in a line: Inhibition of Human Leukocyte Elastase (HLE), hydrolysis of Methoxysuccinyl-Ala-Ala-Pro-Val-nitroanilide. To be noted: tris-HCl buffer pH 8.0, absorption at 410 nm, read-out: Inhibition of Elastase IC50, [Molar]. The class given is biochemical. As to the method:
Several biochemical and animal model tests can be used to examine the ability of the derivatives of the invention to prevent or alleviate the harmful biological action of elastase. The biochemical assays permit direct measurement of drug controlled inhibition of elastase fragmentation of proteins. […] In these tests, protease reaction with the substrate is measured in the presence and absence of the drug to be tested. Inhibition of protease action is indicated by a decrease in the amount of substrated fragmented. The basic parameters for such biochemical assays have been reported in the literature: J. Biol. Chem., 255, 5435 (1980); Biochem. Biophys Acta., 268, 257 (1973); Anal. Biochem. 48,9 (1972); and Biochemistry, 20, 3675 (1981). EXAMPLE 42 Inhibition of Human Leukocyte Elastase (HLE) This test measures the rate of hydrolysis of Methoxysuccinyl-[…]-nitroanilide by HLE in the presence and absence of the compound to be tested. The procedure used is as follows. […] The test hydrolysis solution was then prepared by adding 850 microliters buffer, 50 microliters derivative solution, 50 microliters peptide solution and 50 microliters of HLE solution to a 1 cm. semi-micro cuvette. The cuvette was capped, slightly shaken and placed in the light chamber of a recording colorimeter where the increase in absorption at 410 nm. due to liberated nitroaniline was measured. Using this procedure, the one minute change in absorption of the test sample containing derivative was compared to the change in absorption in the absence of derivative. A 20% or more decrease in the rate of absorption was interpreted as a positive inhibition.
In the case of `CC(C)C(=O)Oc1ccc(C(=O)c2ccccc2)cc1` [Example 34, 4-isobutyryloxybenzophenone], the pIC50 was 6.60.
For `CC(C)(C)C(=O)Oc1ccc(C(=O)c2ccc(OC(=O)C(C)(C)C)cc2OC(=O)C(C)(C)C)cc1` [Example 2, 2,4,4'-tripivaloyloxybenzophenone] the value was 7.26; for `CC(C)(C)C(=O)Oc1ccc(Oc2ccc(OC(=O)C(C)(C)C)cc2)cc1` [Example 16, 4,4'-dipivaloyloxydiphenylether], 6.34.
For `CC(C)(C)C(=O)Oc1ccc(C(=O)c2ccccc2)cc1CCCO` [Example 29, 3-(3-hydroxyoropyl)-4-pivaloyloxybenzophenone] the value was 6.46; for `CC(C)(C)OC(=O)Oc1ccc(C(=O)c2ccc(OC(=O)OC(C)(C)C)cc2)cc1` [Example 14, 4,4'-di(t-butyloxycarbonyloxy)benzophenone], 6.05; for `CC(C)(C)C(=O)Oc1ccc(C(=O)c2ccc(Cl)cc2)cc1` [Example 6, 4-pivaloyloxy-4'-chlorobenzophenone], 6.54.
For `C=CC(C)c1cc(C(=O)c2ccccc2)ccc1OC(=O)C(C)(C)C` (stereo not shown) [Example 27, 3-(1-methyl-allyl)-4-pivaloyloxybenzophenone] the value was 6.49; for `CC(C)(C)C(=O)Oc1ccc(Cc2ccc(OC(=O)C(C)(C)C)cc2)cc1` [Example 39, 4,4'-dipivaloyloxydiphenylmethane], 6.35.
Regarding `CC(C)(C)C(=O)Oc1ccc(C(=O)c2ccc(OC(=O)C(C)(C)C)cc2)cc1` [Example 1a, 4,4'-dipivaloyloxybenzophenone], the pIC50 was 7.22.
Take `CC(C)(C)C(=O)Oc1ccc(C(=O)c2ccccc2)c(OC(=O)C(C)(C)C)c1` [Example 13, 2,4-dipivaloyloxybenzophenone]: the pIC50 was 7.08.
For `CC(C)(C)C(=O)Oc1ccc(C(=O)c2ccccc2)cc1` [Example 1, 4-pivaloyloxybenzophenone] the value was 6.21; for `C=CCc1cc(C(=O)c2ccccc2)ccc1OC(=O)C(C)(C)C` [Example 26, 3-allyl-4-pivaloyloxybenzophenone], 6.10; for `CC(C)(C)C(=O)Oc1cc(C(=O)c2ccc(OC(=O)C(C)(C)C)c(OC(=O)C(C)(C)C)c2OC(=O)C(C)(C)C)cc(OC(=O)C(C)(C)C)c1OC(=O)C(C)(C)C` [Example 9, 3,4,5,4',5',6',-hexapivaloyloxybenzophenone], 6.44.
Take `CC(C)C(=O)Oc1ccc(C(=O)c2ccc(OC(=O)C(C)C)cc2)cc1` [Example 40, 4,4'-diisobutyryloxybenzophenone]: the pIC50 was 6.82.
For `C=C(C)Cc1cc(C(=O)c2ccccc2)ccc1OC(=O)C(C)(C)C` [Example 25, 3-methallyl-4-pivaloyloxybenzophenone] the value was 7.07; for `CCCC(C)(C)C(=O)Oc1ccc(C(=O)c2ccc(OC(=O)C(C)(C)CCC)cc2)cc1` [Example 7, 4,4'-α,α-dimethylvaleroyloxybenzophenone], 6.17.
